Three compounds from BindingDB's records for doi:10.1021/jm021089h (Institute of Biomedical Chemistry of Russian Academy of …, 2003) can be followed below.

The structures appear in SMILES notation. pIC50: −log10 of the molar value.

The target of this test is Angiotensin-converting enzyme (Bos taurus) (UniProt P12820). Kind of test: Inhibitory activity against Angiotensin I converting enzyme (ACE) from bovine kidney.
Chain of Angiotensin-converting enzyme (Bos taurus) (P12820 whole entry, looked up): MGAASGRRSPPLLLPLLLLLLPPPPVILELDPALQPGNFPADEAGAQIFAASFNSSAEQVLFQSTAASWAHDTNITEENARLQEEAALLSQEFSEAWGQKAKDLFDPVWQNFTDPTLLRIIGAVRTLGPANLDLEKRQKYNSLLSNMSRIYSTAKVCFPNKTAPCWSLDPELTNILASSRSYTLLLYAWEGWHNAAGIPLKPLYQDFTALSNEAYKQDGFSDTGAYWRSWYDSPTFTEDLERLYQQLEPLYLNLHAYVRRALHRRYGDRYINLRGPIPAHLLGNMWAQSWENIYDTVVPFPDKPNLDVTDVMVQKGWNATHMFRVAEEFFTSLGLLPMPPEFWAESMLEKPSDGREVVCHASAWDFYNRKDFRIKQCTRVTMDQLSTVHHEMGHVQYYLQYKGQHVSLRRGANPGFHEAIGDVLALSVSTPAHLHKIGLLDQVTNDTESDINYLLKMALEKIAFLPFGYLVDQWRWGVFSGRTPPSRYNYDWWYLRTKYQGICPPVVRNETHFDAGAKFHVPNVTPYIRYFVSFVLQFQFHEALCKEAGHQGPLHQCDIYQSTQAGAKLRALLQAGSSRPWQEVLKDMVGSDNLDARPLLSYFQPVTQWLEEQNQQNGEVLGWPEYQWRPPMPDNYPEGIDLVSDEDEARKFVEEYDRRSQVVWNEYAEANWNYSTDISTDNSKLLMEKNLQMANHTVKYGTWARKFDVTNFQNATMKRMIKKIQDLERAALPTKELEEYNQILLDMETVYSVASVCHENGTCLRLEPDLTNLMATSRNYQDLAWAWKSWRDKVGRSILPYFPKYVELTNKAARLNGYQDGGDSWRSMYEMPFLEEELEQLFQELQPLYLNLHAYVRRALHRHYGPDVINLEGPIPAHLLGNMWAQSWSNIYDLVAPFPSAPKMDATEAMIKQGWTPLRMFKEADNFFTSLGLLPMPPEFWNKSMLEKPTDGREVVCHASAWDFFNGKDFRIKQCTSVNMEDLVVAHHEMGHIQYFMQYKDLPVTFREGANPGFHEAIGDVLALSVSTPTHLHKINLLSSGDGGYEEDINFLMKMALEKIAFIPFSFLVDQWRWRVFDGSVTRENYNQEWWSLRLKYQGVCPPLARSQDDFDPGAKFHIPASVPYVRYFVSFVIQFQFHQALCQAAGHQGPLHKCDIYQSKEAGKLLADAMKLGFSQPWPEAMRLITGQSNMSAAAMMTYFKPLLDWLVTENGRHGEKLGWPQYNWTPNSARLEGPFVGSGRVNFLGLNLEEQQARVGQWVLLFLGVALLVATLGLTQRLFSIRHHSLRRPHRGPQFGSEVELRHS
By pIC50 is commonly meant −log10 of the IC50, conventionally taken in molar units. Turning to `CC1CCCC(C(=O)O)N1C(=O)CCS` (stereo not drawn) [1-(3-Mercapto-propionyl)-6-methyl-piperidine-2-carboxylic acid], the negative-log IC50 (pIC50) was 9.00.

`CC(=O)SCC(C)C(=O)Nc1ccccc1` (stereo not drawn) [Thioacetic acid S-(2-phenylcarbamoyl-propyl) ester]: the pIC50 is 6.52.

Regarding `CC(=O)SCC(C)C(=O)NCc1ccccc1` (stereo not drawn) [Thioacetic acid S-(2-benzylcarbamoyl-propyl) ester], the pIC50 was 3.30.
